Assay results: paper PMC6940354, “Comparative Assessment of the New PDE7 Inhibitor – GRMS-55 and Lisofylline in Animal Models of Immune-Related Disorders: A PK/PD Modeling Approach” (Pharmaceutical Research, 2020)

Columns and labels:
[1] = system: TNF-α release from LPS-stimulated whole rat blood; assay: Inhibition of LPS-induced TNF-α release in whole rat blood; type: cell-based
Experimental: Stimulation of whole rat blood by LPS was performed on 96-well plates. […] Contents of each well (200 μL) consisted of heparinized rat blood containing 10 U heparin mL^−1 diluted with RPMI-1640 medium at a ratio of 1:1 (v/v). All compounds were dissolved in DMSO and added to blood (the final DMSO concentration in blood was 0.5%) 15 min prior to the addition of LPS dissolved in RPMI-1640 medium to achieve the LPS concentration of 10 mg L^−1. Both, LPS and DMSO were also added to control wells at the same concentrations. Additional control samples (for testing baseline TNF-α levels in blood) consisted of DMSO (0.5%) without LPS. The incubation was performed at 37°C in a humidified atmosphere of 5% CO2 in an MCO-5 AC-PE incubator (PHCbi, Japan). After 6 h of incubation, the plates were centrifuged for 10 min using PlateFuge MicroCentrifuge (Benchmark Scientific, USA). The individual plasma samples were harvested and stored at −80°C until analysis.
(§1) TNF-α levels in LPS-stimulated rat blood in vitro and in rat plasma samples from the in vivo studies were analyzed by the Rat TNF-α Quantikine ELISA Immunoassay Kit (R&D Systems, USA) according to the manufacturer’s instructions. The assay was linear at the range of 12.5–800 pg mL^−1. Levels of TNF-α in mice serum were measured by ELISA Kits for Tumor Necrosis Factor Alpha (Cloud-Clone Corp., USA). This assay was linear at the range of 15.6–1000 pg mL^−1. Absorbance was measured at 450 nm using a POLARstar Omega multi-mode microplate reader (BMG LABTECH, Germany).

[2] = system: ConA-induced hepatitis in BALB/c mice; assay: ConA-induced hepatitis in mice; type: in vivo, mouse; details: IP 30 min before ConA 20 mg kg^−1 IV, 8 h after ConA, rolipram 10 mg kg^−1, GRMS-55 and (±)-LSF 50 mg kg^−1, vs control group
Experimental: ConA was dissolved in an appropriate volume of saline for injections to obtain a concentration of 2 mg mL^−1. Each of the investigated compounds was dissolved in a vehicle composed of DMSO and PEG 400 mixed at a ratio of 1:9 (v/v). Thirty minutes before ConA administration, mice were injected intraperitoneally (IP) with the investigated compounds dissolved in the vehicle at a dose of 50 mg kg^−1 or with the corresponding volume of vehicle alone in the case of control group. ConA was administered by IV route at a dose of 20 mg kg^−1 and 8 h later mice were sacrificed. Blood samples were harvested from each individual and allowed to clot for 30 min at room temperature. Subsequently, serum was separated by centrifugation (3000 x g, 10 min), collected, and stored at −80°C until analysis.
as §1
Serum […] (AST) and alanine transaminase (ALT) activity was analyzed using the chemistry analyzer BS-800 (Shenzhen Mindray Bio-medical Electronics Co. ltd, China).

[3] = system: collagen-induced arthritis (CIA) in female Lewis rats; assay: Histological evaluation of ankle cross-sections from CIA rats; type: in vivo, rat; details: multiple administration, compared to vehicle control
Experimental: (§2) At a day 0 of the experiment animals were subcutaneously (SC) injected at the base of the tail with 200 μL of the emulsion using a 27 gauge × 5/8″ needle and Hamilton syringe. At day 7 after the initial immunization, a booster injection with 100 μL of emulsion was performed. Ninety % of rats developed symptoms of disease (paw swelling >150% of day 0) at day 20 of the experiment. At this day, diseased animals were randomly divided into five groups (n = 6). […] One investigated group received (±)-LSF dissolved in saline at an SC dose of 80 mg kg^−1 once daily. The corresponding control groups were administered with appropriate volumes of vehicles IP or SC. At day 40 animals were sacrificed. Hind paws of rats were taken and immersed into 4% buffered formalin solution for a subsequent histological analysis. Blood samples were collected and allowed to clot for 20 min and then centrifuged at 2000 x g for 15 min. Serum samples were collected and frozen at -80°C.
The morphological studies were performed with the imaging CellSens Dimention (Olympus) software. Osteoarthritis histopathology was assessed based on the symptoms associated with synovial inflammation, chondropathy, and subchondral osteoarthritis. Synovitis index estimation involved synovial inflammation, synovial lining thickness, dense of cellularity, and presence of perivascular lymphoid aggregates, where normal synovium (score 0) is defined as thin linning with sparse cellular distribution and no/few inflammatory cells, mild and moderate synovial inflammation (score 1 to 2) indicate thickness of linning with dense cellularity with inflammatory cells, and severe inflammation (score 3) means hypervascular synovitis containing lymphoid aggregates. Two aspects of chondropathy were graded: surface integrity and chondrocyte yielding score 0 for normal morphology to score 3 for chondral lesion with chondrocyte hypercellurarity and/or cloning, and complete cartilage surface integrity loss. Subchondral plate thickening, bone trabeculae deterioration, bone marrow lesion (bone pseudocysts - cavitary lesion formation) associated with fibrovascular replacement of marrow spaces were accounted for subchondral osteoarthritis with grading score from 0 to 3 in severe lesion. The sample preparation procedure for histological evaluation is described in the supplementary materials.
The hind paws were cut about 0.5 cm above the rat joint. Then the joints were fixed in 4% buffered formalin for one week, decalcified, dehydrated in ethanol solutions of increasing concentrations, and embedded in the paraffin blocks. Subsequently, paws were serially cut at 6-μm thickness using a rotational microtome Leica RM 2145 type and stained with Masson's Trichrome. Digital images were taken using a computerized digital camera (Olympus UC90, Olympus).

[4] = system: collagen-induced arthritis (CIA) in female Lewis rats; assay: Body weight, clinical score and paw areas in CIA rats; type: in vivo, rat; details: CIA rats vs control group; rolipram at all assessments post 20th day, (±)-LSF at 26, 33, and 36 day
Experimental: as §2
Body weight and paw size were measured, and clinical score was assessed at days 0, 5, 7, 11, 15, 18, 20, 22, 26, 30, 33, and 36 after the first immunization. Body weight of each rat was normalized to the body weight of the same rat at the day of the first immunization. Disease progression was evaluated by a qualitative clinical score (CS) as described elsewhere (1), where 0 – no symptoms of the disease, such as redness or swelling, 1 – mild, but definite redness and swelling, 2 – moderate redness and swelling, 3 – severe redness and swelling, and 4 – maximally inflamed limbs.

[5] = LPS 10 mg L^−1, 6 h incubation, compared to LPS-treated control

SMILES	Reduction of TNF-α levels in LPS-stimulated whole rat blood (result in words) [1, 5]	TNF-α release in mice serum (result in words) [2]	activities of transaminases (ALT, AST) in mice sera (result in words) [2]	chondritis / articular cartilage, histological score (result in words) [3]	subchondral osteoarthritis, histological score (result in words) [3]	synovitis / synovial inflammation, histological score (result in words) [3]	clinical score values (result in words) [4]	Reduction of TNF-α levels in LPS-stimulated whole rat blood (result in words) ([1]; concentration of 50 μM, compared to the control group)	Inhibition of TNF-α release in LPS-stimulated whole rat blood (result in words) ([1]; levels of 50 and 250 μM, compared to the control wells)
CC(O)CCCCn1c(=O)c2c(ncn2C)n(C)c1=O (racemic) [(±)-LSF, lisofylline]	significantly and with similar potency reduced	significantly reducing TNF-α levels	failed to decrease the activities of transaminases	attenuated	failed to significantly diminish	significant alleviation	significantly lower	–	–
COc1ccc(C2CNC(=O)C2)cc1OC1CCCC1 (stereo not shown) [Rolipram, rolipram]	–	most potently inhibited TNF-α release	significantly reduced	significant amelioration	significant amelioration	significant amelioration	significantly lower	completely reduced	–
Cn1c(=O)c2c(nc(NCCc3ccccc3)n2CCCC(=O)NN=Cc2ccccc2O)n(C)c1=O [GRMS-55, 4-(1,3-Dimethyl-2,6-dioxo-8-(phenethylamino)-2,3,6,7-tetrahydro-1H-purin-7-yl)-N′-(2-hydroxybenzylidene)butanehydrazide]	did not exhibit activity	most potently inhibited TNF-α release	significantly reduced	attenuated	attenuated	significant alleviation	did not decreased significantly	–	failed to inhibit TNF-α release
